Reference: ChEMBL document CHEMBL5715954, “Silencing c-Myc translation as a therapeutic strategy through targeting PI3Kδ and CK1ε in hematological malignancies” (Blood, 2017)

Legend:
Set-up in all cases: scale not given: the % may be the effect or the level left
[1] = molecular target: Tyrosine-protein kinase Lyn (Homo sapiens) (UniProt P07948); test: Inhibition of human LYN B assessed as enzyme activity at 1 uM using poly[Glu:Tyr] (4:1) as substrate preincubated for 20 mins followed by [gamma-33P]-ATP addition and measured after 120 mins by radiometric Hot-SpotSM Kinase assay relative to control
[2] = molecular target: Dual specificity protein kinase CLK2 (Homo sapiens) (UniProt P49760); test: Inhibition of human CLK2 assessed as enzyme activity at 1 uM using myelin basic protein as substrate preincubated for 20 mins followed by [gamma-33P]-ATP addition and measured after 120 mins by radiometric Hot-SpotSM Kinase assay relative to control
[3] = molecular target: SRSF protein kinase 3 (Homo sapiens) (UniProt Q9UPE1); test: Inhibition of human MSSK1 assessed as enzyme activity at 1 uM using GRSRSRSRSR as substrate preincubated for 20 mins followed by [gamma-33P]-ATP addition and measured after 120 mins by radiometric Hot-SpotSM Kinase assay relative to control
[4] = molecular target: T1, Serine/threonine-protein kinase TAO3 (Homo sapiens) (UniProt Q9H2K8); test: Inhibition of human TAOK3 assessed as enzyme activity at 1 uM using myelin basic protein as substrate preincubated for 20 mins followed by [gamma-33P]-ATP addition and measured after 120 mins by radiometric Hot-SpotSM Kinase assay relative to control
T1 sequence (whole entry): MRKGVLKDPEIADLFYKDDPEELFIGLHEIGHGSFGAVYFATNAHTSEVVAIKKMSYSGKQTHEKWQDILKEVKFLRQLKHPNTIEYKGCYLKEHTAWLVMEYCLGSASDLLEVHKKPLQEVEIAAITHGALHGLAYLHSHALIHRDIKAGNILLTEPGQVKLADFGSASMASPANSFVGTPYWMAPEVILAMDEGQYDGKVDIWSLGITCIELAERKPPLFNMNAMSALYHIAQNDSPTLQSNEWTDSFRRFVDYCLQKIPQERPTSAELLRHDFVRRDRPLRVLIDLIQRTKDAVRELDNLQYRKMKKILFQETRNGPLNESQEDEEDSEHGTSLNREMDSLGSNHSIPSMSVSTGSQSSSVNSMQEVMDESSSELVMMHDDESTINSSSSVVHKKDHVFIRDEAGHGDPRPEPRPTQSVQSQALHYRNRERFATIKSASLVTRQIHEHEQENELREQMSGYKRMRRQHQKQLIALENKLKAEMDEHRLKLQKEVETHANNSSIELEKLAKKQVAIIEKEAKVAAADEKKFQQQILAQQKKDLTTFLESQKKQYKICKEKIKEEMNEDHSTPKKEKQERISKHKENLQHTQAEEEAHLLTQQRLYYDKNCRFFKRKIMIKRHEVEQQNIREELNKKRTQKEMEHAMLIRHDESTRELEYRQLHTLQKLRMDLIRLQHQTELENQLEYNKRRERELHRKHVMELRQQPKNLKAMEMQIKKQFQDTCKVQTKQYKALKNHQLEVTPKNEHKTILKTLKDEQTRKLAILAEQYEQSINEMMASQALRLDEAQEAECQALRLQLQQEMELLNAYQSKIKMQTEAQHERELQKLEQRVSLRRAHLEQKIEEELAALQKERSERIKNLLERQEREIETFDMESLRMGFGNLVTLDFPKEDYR

[5] = molecular target: T2, Mitogen-activated protein kinase kinase kinase 19 (Homo sapiens) (UniProt Q56UN5); test: Inhibition of human YSK4/MAP3K19 assessed as enzyme activity at 1 uM using myelin basic protein as substrate preincubated for 20 mins followed by [gamma-33P]-ATP addition and measured after 120 mins by radiometric Hot-SpotSM Kinase assay relative to control
T2 sequence (whole entry): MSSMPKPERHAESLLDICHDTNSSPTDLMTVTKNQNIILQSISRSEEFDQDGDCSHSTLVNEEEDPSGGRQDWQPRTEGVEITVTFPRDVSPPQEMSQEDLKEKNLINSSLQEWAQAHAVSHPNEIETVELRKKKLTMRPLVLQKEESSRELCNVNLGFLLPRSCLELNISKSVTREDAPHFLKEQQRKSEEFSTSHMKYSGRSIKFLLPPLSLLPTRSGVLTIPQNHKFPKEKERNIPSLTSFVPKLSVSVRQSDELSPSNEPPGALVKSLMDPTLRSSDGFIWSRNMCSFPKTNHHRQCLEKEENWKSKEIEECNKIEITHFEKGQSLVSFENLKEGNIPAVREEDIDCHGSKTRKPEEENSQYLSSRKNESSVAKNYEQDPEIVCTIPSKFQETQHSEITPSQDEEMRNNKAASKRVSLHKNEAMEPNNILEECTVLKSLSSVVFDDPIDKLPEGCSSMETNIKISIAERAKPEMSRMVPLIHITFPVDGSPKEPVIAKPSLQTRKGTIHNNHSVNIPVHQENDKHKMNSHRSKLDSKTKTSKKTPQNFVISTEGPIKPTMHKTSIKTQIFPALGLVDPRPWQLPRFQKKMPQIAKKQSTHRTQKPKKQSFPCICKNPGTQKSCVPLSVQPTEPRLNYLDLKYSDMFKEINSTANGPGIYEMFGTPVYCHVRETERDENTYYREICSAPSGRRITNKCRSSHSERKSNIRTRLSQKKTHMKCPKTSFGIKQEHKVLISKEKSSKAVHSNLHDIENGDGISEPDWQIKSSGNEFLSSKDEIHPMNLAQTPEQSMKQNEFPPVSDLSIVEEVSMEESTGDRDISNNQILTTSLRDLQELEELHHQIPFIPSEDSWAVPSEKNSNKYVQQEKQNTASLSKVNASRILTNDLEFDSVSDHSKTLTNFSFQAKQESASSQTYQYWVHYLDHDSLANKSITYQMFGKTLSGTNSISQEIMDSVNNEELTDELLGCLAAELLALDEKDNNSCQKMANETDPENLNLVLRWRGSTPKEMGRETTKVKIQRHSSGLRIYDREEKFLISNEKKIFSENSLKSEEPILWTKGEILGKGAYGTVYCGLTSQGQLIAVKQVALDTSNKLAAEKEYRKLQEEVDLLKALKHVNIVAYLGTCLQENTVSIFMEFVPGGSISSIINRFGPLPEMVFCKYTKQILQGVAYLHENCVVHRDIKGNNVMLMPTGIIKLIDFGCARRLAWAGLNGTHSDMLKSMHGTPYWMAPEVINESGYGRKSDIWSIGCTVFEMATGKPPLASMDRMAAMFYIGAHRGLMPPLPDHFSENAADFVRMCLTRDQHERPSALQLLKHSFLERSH

[6] = molecular target: SRSF protein kinase 1 (Homo sapiens) (UniProt Q96SB4); test: Inhibition of human SRPK1 assessed as enzyme activity at 1 uM using GRSRSRSRSR as substrate preincubated for 20 mins followed by [gamma-33P]-ATP addition and measured after 120 mins by radiometric Hot-SpotSM Kinase assay relative to control
[7] = molecular target: Tyrosine-protein kinase JAK1 (Homo sapiens) (UniProt P23458); test: Inhibition of human JAK1 assessed as enzyme activity at 1 uM using poly[Glu:Tyr] (4:1) as substrate preincubated for 20 mins followed by [gamma-33P]-ATP addition and measured after 120 mins by radiometric Hot-SpotSM Kinase assay relative to control
Sequence of Tyrosine-protein kinase JAK1 (Homo sapiens) (P23458 whole entry): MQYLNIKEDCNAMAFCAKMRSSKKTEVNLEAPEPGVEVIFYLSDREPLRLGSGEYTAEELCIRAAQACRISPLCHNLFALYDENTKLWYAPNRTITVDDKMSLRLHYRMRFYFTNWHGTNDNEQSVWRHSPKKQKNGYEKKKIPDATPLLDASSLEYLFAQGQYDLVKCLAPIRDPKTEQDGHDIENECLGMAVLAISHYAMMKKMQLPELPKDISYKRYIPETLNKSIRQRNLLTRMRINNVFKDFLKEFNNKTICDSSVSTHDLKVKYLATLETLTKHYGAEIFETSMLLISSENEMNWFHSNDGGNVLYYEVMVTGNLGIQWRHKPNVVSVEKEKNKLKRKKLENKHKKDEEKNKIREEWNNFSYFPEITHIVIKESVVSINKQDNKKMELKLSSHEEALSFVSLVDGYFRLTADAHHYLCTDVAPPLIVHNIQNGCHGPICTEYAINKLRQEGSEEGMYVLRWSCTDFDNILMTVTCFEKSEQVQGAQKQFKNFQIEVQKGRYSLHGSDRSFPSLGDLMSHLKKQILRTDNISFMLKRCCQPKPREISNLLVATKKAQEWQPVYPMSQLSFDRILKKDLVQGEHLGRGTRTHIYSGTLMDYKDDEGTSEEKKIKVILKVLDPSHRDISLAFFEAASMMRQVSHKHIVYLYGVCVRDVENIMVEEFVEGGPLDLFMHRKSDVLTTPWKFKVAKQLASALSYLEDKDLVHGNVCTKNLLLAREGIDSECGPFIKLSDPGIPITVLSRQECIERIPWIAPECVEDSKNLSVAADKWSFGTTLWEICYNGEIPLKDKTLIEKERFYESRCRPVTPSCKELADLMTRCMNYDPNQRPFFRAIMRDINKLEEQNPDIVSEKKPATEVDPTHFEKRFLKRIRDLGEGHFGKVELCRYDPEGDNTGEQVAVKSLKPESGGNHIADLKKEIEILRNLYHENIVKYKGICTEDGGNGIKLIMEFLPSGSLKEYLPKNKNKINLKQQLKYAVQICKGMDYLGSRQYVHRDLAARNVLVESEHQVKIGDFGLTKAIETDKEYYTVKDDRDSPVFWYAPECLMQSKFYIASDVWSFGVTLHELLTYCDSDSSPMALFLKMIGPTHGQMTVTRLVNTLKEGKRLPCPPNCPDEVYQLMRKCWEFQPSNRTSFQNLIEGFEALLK

Sequence of Dual specificity protein kinase CLK2 (Homo sapiens) (P49760 whole entry, looked up): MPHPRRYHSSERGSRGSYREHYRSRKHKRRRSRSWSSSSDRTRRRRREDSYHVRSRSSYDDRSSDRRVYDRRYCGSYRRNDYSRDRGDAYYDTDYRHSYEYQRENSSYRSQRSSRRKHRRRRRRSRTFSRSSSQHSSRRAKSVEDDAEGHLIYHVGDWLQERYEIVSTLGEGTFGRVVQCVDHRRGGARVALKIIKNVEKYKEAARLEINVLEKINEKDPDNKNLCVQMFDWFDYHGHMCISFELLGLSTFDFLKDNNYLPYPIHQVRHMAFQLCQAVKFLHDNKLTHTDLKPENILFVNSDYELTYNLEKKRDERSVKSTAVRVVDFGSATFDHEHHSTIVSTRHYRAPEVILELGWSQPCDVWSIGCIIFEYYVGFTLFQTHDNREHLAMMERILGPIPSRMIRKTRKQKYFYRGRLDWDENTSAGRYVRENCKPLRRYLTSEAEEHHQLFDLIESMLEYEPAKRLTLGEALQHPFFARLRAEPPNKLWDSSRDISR
Sequence of Tyrosine-protein kinase Lyn (Homo sapiens) (P07948 2-512 limits assumed): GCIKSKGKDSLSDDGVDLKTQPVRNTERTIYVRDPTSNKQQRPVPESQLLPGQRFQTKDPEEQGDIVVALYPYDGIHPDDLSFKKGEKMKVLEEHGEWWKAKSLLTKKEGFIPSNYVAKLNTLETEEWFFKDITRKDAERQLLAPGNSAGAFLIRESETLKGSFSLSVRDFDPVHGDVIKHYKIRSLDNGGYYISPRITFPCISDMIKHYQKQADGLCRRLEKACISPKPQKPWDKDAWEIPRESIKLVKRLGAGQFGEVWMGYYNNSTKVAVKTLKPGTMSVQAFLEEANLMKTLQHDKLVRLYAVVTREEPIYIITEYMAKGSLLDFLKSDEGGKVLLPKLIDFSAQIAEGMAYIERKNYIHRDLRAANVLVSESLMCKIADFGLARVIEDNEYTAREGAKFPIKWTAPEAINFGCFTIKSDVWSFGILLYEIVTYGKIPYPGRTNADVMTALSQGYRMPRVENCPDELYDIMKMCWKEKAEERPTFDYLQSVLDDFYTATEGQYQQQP
Sequence of SRSF protein kinase 3 (Homo sapiens) (Q9UPE1 whole entry): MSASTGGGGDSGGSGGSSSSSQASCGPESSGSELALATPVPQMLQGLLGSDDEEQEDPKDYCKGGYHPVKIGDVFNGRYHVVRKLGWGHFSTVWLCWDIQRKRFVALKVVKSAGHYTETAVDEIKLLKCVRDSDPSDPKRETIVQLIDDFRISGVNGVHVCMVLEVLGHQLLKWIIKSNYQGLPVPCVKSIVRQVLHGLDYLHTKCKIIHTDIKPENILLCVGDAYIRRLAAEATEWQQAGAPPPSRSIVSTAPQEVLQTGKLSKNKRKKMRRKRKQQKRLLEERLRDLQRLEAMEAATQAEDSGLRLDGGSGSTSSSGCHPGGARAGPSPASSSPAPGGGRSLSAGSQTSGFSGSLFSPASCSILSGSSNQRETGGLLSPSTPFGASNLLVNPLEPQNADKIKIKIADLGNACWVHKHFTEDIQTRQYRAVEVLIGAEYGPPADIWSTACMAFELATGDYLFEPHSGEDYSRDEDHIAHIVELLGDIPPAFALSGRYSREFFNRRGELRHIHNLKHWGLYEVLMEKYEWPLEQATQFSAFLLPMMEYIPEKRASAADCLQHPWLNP
Sequence of SRSF protein kinase 1 (Homo sapiens) (Q96SB4 whole entry): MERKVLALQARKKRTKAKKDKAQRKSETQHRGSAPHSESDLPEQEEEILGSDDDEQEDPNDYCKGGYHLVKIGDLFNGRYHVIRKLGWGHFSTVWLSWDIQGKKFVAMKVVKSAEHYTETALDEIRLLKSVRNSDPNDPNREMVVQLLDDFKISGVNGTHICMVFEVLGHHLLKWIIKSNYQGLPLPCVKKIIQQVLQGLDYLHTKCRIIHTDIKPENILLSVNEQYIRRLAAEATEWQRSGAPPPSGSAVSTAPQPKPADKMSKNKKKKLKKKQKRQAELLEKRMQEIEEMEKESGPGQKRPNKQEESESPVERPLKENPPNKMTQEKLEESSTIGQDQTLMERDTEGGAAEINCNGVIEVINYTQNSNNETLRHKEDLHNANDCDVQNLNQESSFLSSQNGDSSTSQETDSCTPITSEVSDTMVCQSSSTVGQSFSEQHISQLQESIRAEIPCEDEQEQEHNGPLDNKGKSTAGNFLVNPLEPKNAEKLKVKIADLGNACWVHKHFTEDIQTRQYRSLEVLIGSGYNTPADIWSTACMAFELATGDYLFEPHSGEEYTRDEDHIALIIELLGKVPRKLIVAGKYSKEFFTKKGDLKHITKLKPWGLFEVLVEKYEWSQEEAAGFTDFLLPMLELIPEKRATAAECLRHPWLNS

| SMILES | Activity [1] | Activity [2] | Activity [3] | Activity [4] | Activity [5] | Activity [6] | Activity [7] |
| --- | --- | --- | --- | --- | --- | --- | --- |
| C[C@H](Nc1ncnc2nc[nH]c12)c1cc2cccc(Cl)c2c(=O)n1-c1ccccc1 | 102% | 95.3% | 102% | 106% | 91.6% | 94% | 84.6% |
| CC[C@H](Nc1ncnc2[nH]cnc12)c1nc2cccc(F)c2c(=O)n1-c1ccccc1 | 97.8% | 96.9% | 101% | 98.6% | 90.5% | 92.7% | 85.6% |
| CC(C)Oc1ccc(-c2nn([C@@H](C)c3oc4ccc(F)cc4c(=O)c3-c3cccc(F)c3)c3ncnc(N)c23)cc1F [UMBRALISIB] | 104% | 99.5% | 107% | 106% | 92.4% | 90.6% | 83.4% |
